# Measured values from patent US9695155B2, “Herbicidal substituted pyrimidinyloxy benzene compounds” (E. I. DU PONT DE NEMOURS AND COMPANY, priority 2013, dated 2017).
# Tests used:
# [1] = test system: Italian ryegrass; test: Test A postemergence; format: in vivo, Lolium multiflorum; settings: for Plant response rating, Ryegrass, Italian: 0 to 100 scale, 0 no effect, 100 complete control
# Summary of the method: (§1)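 Pre- and postemergence greenhouse screen. Soil: loam + sand. Spray carrier: solvent mixture, non-phytotoxic, with surfactant. Post timing at 1–2 leaves, height 2–10 cm. Readout: visual injury on a 0–100 scale roughly 10 days after application, untreated plants as reference.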
# [2] = test system: kochia; test: Test A postemergence; format: in vivo, Kochia scoparia
# Summary of the method: as §1
# [3] = test system: ragweed; test: Test A preemergence; format: in vivo, Ambrosia elatior; settings: for Plant response rating, Ragweed: 0 to 100 scale where 0 is no effect and 100 is complete control
# Summary of the method: as §1
# [4] = test system: pigweed; test: Test A postemergence; format: in vivo, Amaranthus retroflexus; settings: for Plant response rating, Pigweed: 0 to 100 scale, 0 no effect, 100 complete control
# Summary of the method: as §1
# [5] = test system: Italian ryegrass; test: Test A preemergence; format: in vivo, Lolium multiflorum; settings: for Plant response rating, Ryegrass, Italian: 0 to 100 scale where 0 is no effect and 100 is complete control
# Summary of the method: as §1
# [6] = test system: giant foxtail; test: Test A preemergence; format: in vivo, Setaria faberii; settings: for Plant response rating, Foxtail, Giant: 0 to 100 scale where 0 is no effect and 100 is complete control
# Summary of the method: as §1
# [7] = test system: Heteranthera limosa; test: Test B flooded paddy test; format: in vivo; settings: Flood, 250 g ai/ha; 0 to 100 scale where 0 is no effect and 100 is complete control
# Summary of the method: (§2)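 Plants were grown to the 2-leaf stage, then pots were flooded to 3 cm above the soil and compounds were applied directly into the paddy water. That depth was held throughout, and after 13 to 15 days in the greenhouse injury was rated visually against controls on a 0–100 scale (0 no effect, 100 complete control).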
# [8] = test system: barnyardgrass; test: Test B flooded paddy test; format: in vivo, Echinochloa crus-galli; settings: Flood, 250 g ai/ha; 0 to 100 scale where 0 is no effect and 100 is complete control
# Summary of the method: as §2
# [9] = test system: ragweed; test: Test A postemergence; format: in vivo, Ambrosia elatior; settings: for Plant response rating, Ragweed: 0 to 100 scale, 0 no effect, 100 complete control
# Summary of the method: as §1
# [10] = test system: rice; test: Test B flooded paddy test; format: in vivo, Oryza sativa; settings: Flood, 250 g ai/ha; 0 to 100 scale where 0 is no effect and 100 is complete control
# Summary of the method: as §2
# [11] = test system: kochia; test: Test A preemergence; format: in vivo, Kochia scoparia; settings: for Plant response rating, Kochia: 0 to 100 scale where 0 is no effect and 100 is complete control
# Summary of the method: as §1
# [12] = test system: blackgrass; test: Test A postemergence; format: in vivo, Alopecurus myosuroides
# Summary of the method: as §1
# [13] = test system: barnyardgrass; test: Test A preemergence; format: in vivo, Echinochloa crus-galli; settings: for Plant response rating, Barnyardgrass: 0 to 100 scale where 0 is no effect and 100 is complete control
# Summary of the method: as §1
# [14] = test system: galium; test: Test A postemergence; format: in vivo, Galium aparine
# Summary of the method: as §1
# [15] = test system: sedge, umbrella; test: Test B flooded paddy test; format: in vivo, Cyperus difformis; settings: Flood, 250 g ai/ha; 0 to 100 scale where 0 is no effect and 100 is complete control
# Summary of the method: as §2
# [16] = test system: barnyardgrass; test: Test A postemergence; format: in vivo, Echinochloa crus-galli
# Summary of the method: as §1
# [17] = test system: pigweed; test: Test A preemergence; format: in vivo, Amaranthus retroflexus; settings: for Plant response rating, Pigweed: 0 to 100 scale where 0 is no effect and 100 is complete control
# Summary of the method: as §1
# [18] = test system: corn; test: Test A postemergence; format: in vivo, Zea mays
# Summary of the method: as §1
# [19] = test system: giant foxtail; test: Test A postemergence; format: in vivo, Setaria faberii
# Summary of the method: as §1
# [20] = test system: wheat; test: Test A postemergence; format: in vivo, Triticum aestivum; settings: for Plant response rating, Wheat: 0 to 100 scale, 0 no effect, 100 complete control
# Summary of the method: as §1
# [21] = 31 g ai/ha, 0 to 100 scale, 0 no effect, 100 complete control
# [22] = 125 g ai/ha, 0 to 100 scale, 0 no effect, 100 complete control
# [23] = 31 g ai/ha, visual, approximately 10 days
# [24] = 125 g ai/ha, 0 to 100 scale where 0 is no effect and 100 is complete control
Compound,"Plant response rating, Ryegrass, Italian ([1]; 31 g ai/ha)","Plant response rating, Kochia [2, 21]","Plant response rating, Ragweed [3, 23]","Plant response rating, Pigweed ([4]; 31 g ai/ha)","Plant response rating, Ryegrass, Italian [5, 23]","Plant response rating, Foxtail, Giant [6, 23]","Plant response rating, Ducksalad [7]","Plant response rating, Barnyardgrass [8]","Plant response rating, Ragweed ([9]; 31 g ai/ha)","Plant response rating, Rice [10]","Plant response rating, Kochia [11, 23]","Plant response rating, Blackgrass [12, 21]","Plant response rating, Barnyardgrass [13, 23]","Plant response rating, Galium [14, 21]","Plant response rating, Sedge, Umbrella [15]","Plant response rating, Barnyardgrass [16, 21]","Plant response rating, Pigweed [17, 23]","Plant response rating, Corn [18, 21]","Plant response rating, Foxtail, Giant [19, 21]","Plant response rating, Wheat ([20]; 31 g ai/ha)",other results
FCc1cccc(Oc2ncc(F)cn2)c1-n1cc(Cl)cn1 [Compound 249],0,20,0,60,0,0,70,0,10,0,0,60,0,20,60,0,90,0,0,0,"Plant response rating, Ryegrass, Italian ([1]; 125 g ai/ha): 0; Plant response rating, Kochia [2, 22]: 80; Ragweed plant response rating (0 to 100 scale) ([3]; 125 g ai/ha): 0; Plant response rating, Pigweed ([4]; 125 g ai/ha): 100; Ryegrass, Italian plant response rating (0 to 100 scale) ([5]; 125 g ai/ha): 30; Foxtail, Giant plant response rating (0 to 100 scale) ([6]; 125 g ai/ha): 0; Plant response rating, Ragweed ([9]; 125 g ai/ha): 70; Kochia plant response rating (0 to 100 scale) ([11]; 125 g ai/ha): 40; Plant response rating, Blackgrass [12, 22]: 80; Barnyardgrass plant response rating (0 to 100 scale, 0 is no effect, 100 is complete control) ([13]; 125 g ai/ha): 0; Plant response rating, Galium [14, 22]: 30; Plant response rating, Barnyardgrass [16, 22]: 60; Pigweed plant response rating (0 to 100 scale) ([17]; 125 g ai/ha): 90; Plant response rating, Corn [18, 22]: 10; Plant response rating, Foxtail, Giant [19, 22]: 60; Plant response rating, Wheat ([20]; 125 g ai/ha): 0"
CC(C)Oc1cnn(-c2c(C#N)cccc2Oc2ncc(Cl)cn2)c1 [Compound 149],0,60,0,60,0,60,70,0,50,0,70,50,40,70,65,20,100,0,20,0,"Ryegrass, Italian plant response rating [1, 24]: 30; Kochia plant response rating [2, 24]: 70; Plant response rating, Ragweed ([3]; 125 g ai/ha): 60; Pigweed plant response rating [4, 24]: 100; Plant response rating, Ryegrass, Italian ([5]; 125 g ai/ha): 20; Plant response rating, Foxtail, Giant ([6]; 125 g ai/ha): 100; Ragweed plant response rating [9, 24]: 80; Plant response rating, Kochia ([11]; 125 g ai/ha): 100; Blackgrass plant response rating [12, 24]: 80; Plant response rating, Barnyardgrass ([13]; 125 g ai/ha): 90; Galium plant response rating [14, 24]: 100; Barnyardgrass plant response rating [16, 24]: 70; Plant response rating, Pigweed ([17]; 125 g ai/ha): 100; Corn plant response rating [18, 24]: 20; Foxtail, Giant plant response rating [19, 24]: 90; Wheat plant response rating [20, 24]: 0"
Cc1cn(-c2c(C#N)cccc2Oc2ncc(Cl)cn2)cn1 [Compound 260],0,50,0,50,0,0,0,0,30,0,0,0,0,50,0,0,0,0,0,0,"Plant response rating, Ryegrass, Italian ([1]; 125 g ai/ha): 0; Plant response rating, Kochia [2, 22]: 60; Ragweed plant response rating (0 to 100 scale) ([3]; 125 g ai/ha): 0; Plant response rating, Pigweed ([4]; 125 g ai/ha): 60; Ryegrass, Italian plant response rating (0 to 100 scale) ([5]; 125 g ai/ha): 0; Foxtail, Giant plant response rating (0 to 100 scale) ([6]; 125 g ai/ha): 0; Plant response rating, Ragweed ([9]; 125 g ai/ha): 40; Kochia plant response rating (0 to 100 scale) ([11]; 125 g ai/ha): 0; Plant response rating, Blackgrass [12, 22]: 0; Barnyardgrass plant response rating (0 to 100 scale, 0 is no effect, 100 is complete control) ([13]; 125 g ai/ha): 0; Plant response rating, Galium [14, 22]: 60; Plant response rating, Barnyardgrass [16, 22]: 0; Pigweed plant response rating (0 to 100 scale) ([17]; 125 g ai/ha): 30; Plant response rating, Corn [18, 22]: 10; Plant response rating, Foxtail, Giant [19, 22]: 0; Plant response rating, Wheat ([20]; 125 g ai/ha): 0"
Fc1cnc(Oc2cccc(Cl)c2-n2cc(OC(F)F)cn2)nc1 [Compound 101],0,70,,90,,,0,0,50,0,,20,,40,0,20,,10,20,20,"Plant response rating, Kochia [2, 24]: 100; Ragweed plant response rating (0 to 100 scale) ([3]; 31 g ai/ha): 0; Plant response rating, Ragweed ([3]; 125 g ai/ha): 30; Ryegrass, Italian plant response rating (0 to 100 scale) ([5]; 31 g ai/ha): 0; Plant response rating, Ryegrass, Italian ([5]; 125 g ai/ha): 0; Foxtail, Giant plant response rating (0 to 100 scale) ([6]; 31 g ai/ha): 70; Plant response rating, Foxtail, Giant ([6]; 125 g ai/ha): 90; Kochia plant response rating (0 to 100 scale) ([11]; 31 g ai/ha): 70; Plant response rating, Kochia ([11]; 125 g ai/ha): 70; Plant response rating, Blackgrass [12, 24]: 20; Barnyardgrass plant response rating (0 to 100 scale) ([13]; 31 g ai/ha): 60; Plant response rating, Barnyardgrass ([13]; 125 g ai/ha): 70; Plant response rating, Galium [14, 24]: 60; Plant response rating, Barnyardgrass [16, 24]: 20; Pigweed plant response rating (0 to 100 scale) ([17]; 31 g ai/ha): 90; Plant response rating, Pigweed ([17]; 125 g ai/ha): 100; Plant response rating, Corn [18, 24]: 20; Plant response rating, Foxtail, Giant [19, 24]: 60"
